Measurements from patent US11518764B2, “Substituted heteroaryls as inhibitors of the BCL6 BTB domain protein-protein interaction” (Ontario Institute for Cancer Research (OICR), priority 2018, dated 2022).
Where two headings read alike, the source gives them in different places.

Tests used:
Karpas422 cells = test: Tumor cell growth inhibition assay; type: cell-based
Experimental: Tumor Cell Growth inhibition Assay
Karpas422 cells were seeded into a 96-well plate at 2,000 cells/well in 150 ul medium (Alpha-MEM containing 10% FBS, […] Normocin, and […] Gentamycin, Invitrogen). A HP D300 digital dispenser was used to dose cells with DMSO or test compounds across a 10-point range of concentrations (high dose of 5 uM), and cultures were grown in a humidified 5% CO2 incubator at 37° C. After six days, plates were removed from incubator and equilibrated to room temperature. An equal volume of ATPlite assay reagent was added to each well, and samples were processed according to manufacturer's instructions (Perkin Elmer). Luminescent signal was measured using an Envision plate reader equipped with a US-Luminescence detector.

[1] = system: BCL6 reporter construct (3xBCL6-TK-Luc) in SuDHL4 cells; test: Cell-based luciferase assay
Experimental: Cell-Based Luciferase Assay
A BCL6 reporter construct containing three copies of the consensus BCL6 binding site, the TK promoter, and the firefly luciferase gene was stably expressed in SuDHL4 cells after lentivirus infection and selection with Blasticidin. SuDHL4-3×BCL6-TK-Luc cells were seeded into a Viewplate 384-well assay dish at 15,000 cells/well in 25 ul medium (Alpha-MEM high glucose containing 10% FBS, 25 mM HEPES, […] GlutaMAX, 100 ug/ml Normocin, and […] Gentamycin, Invitrogen). A HP D300 digital dispenser was used to dose cells with DMSO or test compounds across a 10-point range of concentrations (high dose of 10 uM), and cultures were grown in a humidified 5% CO2 incubator at 37° C. After two days, plates were removed from the incubator and equilibrated to room temperature. An equal volume of neolite reporter gene assay reagent was added to each well, and samples were processed according to manufacturer's instructions (Perkin Elmer). Luminescent signal was measured using an Envision plate reader equipped with a US-Luminescence detector.

BCL6 BTB domain = BCL6 BTB domain (Homo sapiens (Human), UniProt P41182); test: Surface plasmon resonance (SPR) assay; type: binding; settings: BCL6 BTB domain captured on SA chip, single cycle kinetics
[2] = Homo sapiens, KARPAS-422, 144 h, read-out: Tumor Growth Inhibition in Karpas-422 (IC50, uM), Karpas422 cells, six days, ATPlite
[3] = Homo sapiens, SU-DHL-4, 48 h, read-out: Luciferase-Assay EC50, uM), SuDHL4-3xBCL6-TK-Luc cells, two days, high dose 10 uM
[4] = read-out: Tumor Growth Inhibition in Karpas-422 (IC50), Karpas422 cells, six days, ATPlite

Row | Molecule | IC50 (Karpas422 cells; [2]) | EC50 [1, 3] | Kd (BCL6 BTB domain) | further results
1 | Cc1cc(-c2cn(CC(=O)Nc3cc(N4CCOCC4)ncc3Cl)c3ncn(C)c(=O)c23)cc(C(N)=O)c1O [Compound I-4, 5-(7-(2-((5-chloro-2-morpholinopyridin-4-yl)amino)-2-oxoethyl)-3-methyl-4-oxo-4,7-dihydro-3H-pyrrolo[2,3-d]pyrimidin-5-yl)-2-hydroxy-3-methylbenzamide] | 0.525 µM | 1.8 µM | 279 nM | 
2 | C[C@@H]1CN(c2cc(NC(=O)Cn3cc(-c4cc(Cl)c(O)c(C(N)=O)c4)c4c(=O)n(C)cnc43)c(Cl)cn2)C[C@H](C)O1 [Compound I-13] | 0.18 µM | 0.17 µM | 22 nM | 
3 | C[C@H]1COCCN1c1cc(NC(=O)Cn2cc(-c3cc(Cl)c(O)c(C(N)=O)c3)c3c(=O)n(C)cnc32)c(Cl)cn1 [Compound I-35] |  |  |  | IC50 (Karpas422 cells; [4]): 0.133 µM
4 | Cn1cnc2c(c(-c3cc(Cl)c(O)c(C(N)=O)c3)cn2CC(=O)Nc2cc(N3CCC(F)C3)ncc2Cl)c1=O (centres unmarked) [Compound I-67] | 0.267 µM | 0.296 µM | 14 nM | 
5 | Cn1cnc2c(c(-c3cc(Cl)c(O)c(C(N)=O)c3)cn2CC(=O)Nc2cc(N3CCOC(C(F)(F)F)C3)ncc2Cl)c1=O (centres unmarked) [Compound I-69] |  |  | 72 nM | IC50 (Karpas422 cells; [4]): 0.22 µM; EC50 ([1]; read-out: Luciferase-Assay EC50, SuDHL4-3xBCL6-TK-Luc cells, two days, high dose 10 uM): 0.269 µM
6 | C[C@@H]1CN(CCN(C)c2cc(NC(=O)Cn3cc(-c4cc(Cl)c(O)c(C(N)=O)c4)c4c(=O)n(C)cnc43)c(Cl)cn2)C[C@H](C)O1 [Compound I-73] | 0.165 µM | 0.233 µM | 19 nM | 
7 | Cn1cnc2c(c(-c3cc(Cl)c(O)c(C(N)=O)c3)cn2CC(=O)Nc2cc(N3C[C@H]4CCO[C@H]4C3)ncc2Cl)c1=O [Compound I-74] | 0.123 µM | 2.3 µM | 2 nM | 
8 | Cn1cnc2c(c(-c3cc(Cl)c(O)c(C(N)=O)c3)cn2CC(=O)Nc2cc(N3CCN4CCOCC4C3)ncc2Cl)c1=O (centres unmarked) [Compound I-75] | 0.099 µM | 0.132 µM | 8 nM | 
9 | Cn1cnc2c(c(-c3cc(Cl)c(O)c(C(N)=O)c3)cn2CC(=O)Nc2cc(N3CCC4(CCOC4)C3)ncc2Cl)c1=O (centres unmarked) [Compound I-76] | 0.112 µM | 0.155 µM | 12 nM | 
10 | Cn1cnc2c(c(-c3cc(C(N)=O)c(O)cn3)cn2CC(=O)Nc2cc(N3CCOCC3)ncc2Cl)c1=O [Compound I-143, 2-(7-(2-((5-chloro-2-morpholinopyridin-4-yl)amino)-2-oxoethyl)-3-methyl-4-oxo-4,7-dihydro-3H-pyrrolo[2,3-d]pyrimidin-5-yl)-5-hydroxyisonicotinamide] |  | 6.2 µM | 250 nM | 
11 | CCOc1cc(-c2cn(CC(=O)Nc3cc(N4CCOC[C@@H]4C)ncc3Cl)c3ncn(C)c(=O)c23)cc(C(N)=O)c1O [Compound I-144] | 10 µM | 10 µM |  | 
12 | Cn1cnc2c(c(-c3cc(Cl)c(O)c(C(N)=O)c3)cn2CC(=O)Nc2cc(N3CCn4cc(C(F)(F)F)nc4C3)ncc2Cl)c1=O [Compound I-165] |  | 0.466 µM | 14.9 nM | 
13 | CN1CCN(c2ccc(Cl)c(NC(=O)Cn3cc(-c4cc(Cl)c(O)c(C(N)=O)c4)c4c(=O)n(C)cnc43)n2)CC1 [Compound I-175] | 4.79 µM |  | 429 nM | 
14 | C[C@H]1CN(C)CCN1c1cc(NC(=O)Cn2cc(-c3cc(F)c(O)c(C(N)=O)c3)c3c(=O)n(C)c(C(F)(F)F)nc32)c(Cl)cn1 [Compound I-233] |  | 0.161 µM | 23.7 nM | 
15 | C[C@H]1COCCN1c1cc(NC(=O)Cn2cc(-c3cc(Cl)c(O)c(C(N)=O)c3)c3c(=O)n(C)cnc32)c(Cl)cn1 [Compound I-239] |  |  |  | IC50 (Karpas422 cells; [4]): 0.316 µM
16 | C[C@H]1CN(CC(F)(F)F)CCN1c1cc(NC(=O)Cn2cc(-c3cc(Cl)c(O)c(C(N)=O)c3)c3c(=O)n(C)c(C(F)(F)F)nc32)c(Cl)cn1 [Compound I-253] |  |  | 2100 nM | 
17 | Cn1cnc2c(c(-c3cc(Cl)c(O)c(C(N)=O)c3)cn2CC(=O)N[C@@H]2CCCC[C@H]2OC(=O)C(F)(F)F)c1=O [Compound I-254, (1R,2R)-2-(2-(5-(3-carbamoyl-5-chloro-4-hydroxyphenyl)-3-methyl-4-oxo-3,4-dihydro-7H-pyrrolo[2,3-d]pyrimidin-7-yl)acetamido)cyclohexyl 2,2,2-trifluoroacetate] |  |  | 3880 nM | 

Row | Molecule | IC50 (Karpas422 cells; [2]) | EC50 [1, 3] | Kd (BCL6 BTB domain) | further results
18 | Cn1cnc2c(c(-c3cc(Cl)c(O)c(C(N)=O)c3)cn2CC(=O)NC2CCCc3ccncc32)c1=O (centres unmarked) [Compound I-255] |  |  | 6110 nM | 
19 | Cn1cnc2c(c(-c3cc(Cl)c(O)c(C(N)=O)c3)cn2CC(=O)NC2CCCc3ncccc32)c1=O (centres unmarked) [Compound I-257] |  |  | 3640 nM | 
20 | C[C@H]1COCCN1c1cc(NC(=O)Cn2cc(-c3cc(Cl)c(O)c(C(N)=O)c3)c3c(=O)n(C)c(N(C)C)nc32)c(Cl)cn1 [Compound I-263, (S)-3-chloro-5-(7-(2-((5-chloro-2-(3-methylmorpholino)pyridin-4-yl)amino)-2-oxoethyl)-2-(dimethylamino)-3-methyl-4-oxo-4,7-dihydro-3H-pyrrolo[2,3-d]pyrimidin-5-yl)-2-hydroxybenzamide] | 0.745 µM | 2.07 µM |  | 
21 | COc1c(O)c(C(N)=O)cc(-c2cn(CC(=O)Nc3cc(N4CCN(C)C[C@@H]4C)ncc3Cl)c3nc(C(F)(F)F)n(C)c(=O)c23)c1F [Compound I-266] | 2.78 µM | 1.61 µM |  | 
22 | CNc1nc2c(c(-c3cc(Cl)c(O)c(C(N)=O)c3)cn2CC(=O)Nc2cc(N3CCOC[C@@H]3C)ncc2Cl)c(=O)n1C [Compound I-268, (S)-3-chloro-5-(7-(2-((5-chloro-2-(3-methylmorpholino)pyridin-4-yl)amino)-2-oxoethyl)-3-methyl-2-(methylamino)-4-oxo-4,7-dihydro-3H-pyrrolo[2,3-d]pyrimidin-5-yl)-2-hydroxybenzamide] | 1.86 µM | 1.8 µM |  | 
23 | CN(C)c1cc(NC(=O)Cn2cc(-c3cc(Cl)c(O)c(C(N)=O)c3)c3c(=O)n(C)c(Nc4cc(N(C)C)ncc4Cl)nc32)c(Cl)cn1 [Compound I-291, 3-chloro-5-(2-((5-chloro-2-(dimethylamino)pyridin-4-yl)amino)-7-(2-((5-chloro-2-(dimethylamino)pyridin-4-yl)amino)-2-oxoethyl)-3-methyl-4-oxo-4,7-dihydro-3H-pyrrolo[2,3-d]pyrimidin-5-yl)-2-hydroxybenzamide] | 0.908 µM | 1.76 µM |  | 
24 | C[C@H]1CN(CC2CC2)CCN1c1cc(NC(=O)Cn2cc(-c3cc(C(N)=O)c(O)c(F)c3F)c3c(=O)n(C)cnc32)c(Cl)cn1 [Compound I-307] | 0.676 µM | 0.464 µM |  | 
25 | Cc1nc2c(c(-c3cc(Cl)c(O)c(C(N)=O)c3)cn2CC(=O)Nc2cc(N3CCN(C4COC4)C[C@@H]3C)ncc2Cl)c(=O)n1C [Compound I-336] | 0.0502 µM | 0.0383 µM |  | 
26 | Cc1nc2c(c(-c3cc(Cl)c(O)c(C(N)=O)c3)cn2CC(=O)Nc2ccncc2Br)c(=O)n1C [Compound I-337] | 1.93 µM | 1.55 µM |  | 
27 | Cc1nc2c(c(-c3cc(Cl)c(O)c(C(N)=O)c3)cn2CC(=O)Nc2cc(N3CCN(CC4CC4)C[C@@H]3C)ncc2Cl)c(=O)n1C [Compound I-338] | 0.231 µM | 0.163 µM |  | 
28 | Cc1nc2c(c(-c3cc(C(N)=O)c(O)c(F)c3F)cn2CC(=O)Nc2cc(N3CCN(CC4CC4)C[C@@H]3C)ncc2Cl)c(=O)n1C [Compound I-339] | 0.237 µM | 0.454 µM |  | 
29 | [2H]C1(C([2H])([2H])N2CCN(c3cc(NC(=O)Cn4cc(-c5cc(C(N)=O)c(O)c(F)c5F)c5c(=O)n(C)cnc54)c(Cl)cn3)[C@@H](C)C2)CC1 [Compound I-370] | 1.31 µM | 0.61 µM |  | 
30 | CN1CC2CC(C1)N2c1cc(NC(=O)Cn2cc(-c3cc(F)c(O)c(C(N)=O)c3)c3c(=O)n(C)cnc32)c(Cl)cn1 [Compound I-450] |  |  | 43.6 nM | 
31 | CN1CC2CC(C1)N2c1cc(NC(=O)Cn2cc(-c3cc(C(N)=O)c(O)c(F)c3F)c3c(=O)n(C)cnc32)c(Cl)cn1 [Compound I-451] |  |  | 157 nM | 
32 | CN1CCC2(C1)CN(c1cc(NC(=O)Cn3cc(-c4cc(C(N)=O)c(O)c(F)c4F)c4c(=O)n(C)cnc43)c(Cl)cn1)C2 [Compound I-485] |  |  | 805 nM | 
33 | (S)-3-chloro-5-(7-(2-((5-chloro-2-(3-methylmorpholino)pyridin-4-yl)amino)-2-oxoethyl)-3-methyl-4-oxo-2-phenyl-4,7-dihydro-3H-pyrrolo[2,3-d]pyrimidin-5-yl)-2-hydroxybenzamide [Compound I-247] |  |  |  | IC50 (Karpas422 cells; Karpas422 cells, six days, ATPlite, read-out: Tumor Growth Inhibition in Karpas-422 (IC50)): 0.628 µM; EC50 ([1]; SuDHL4-3xBCL6-TK-Luc cells, two days, high dose 10 uM, read-out: Luciferase-Assay EC50): 15.2 µM
